Measurements: US20260207632A1, “C[…] THERAPY” (KINGDOM THERAPEUTICS LIMITED, priority 2022, published 2026)

What was measured:
[1] = system: rat VPA model of autism; assay: Muscle thickness in rat colonic tissue (H&E histology), VPA rat model; assay type: in vivo; conditions: for Average Muscle Thickness: VPA in utero
Description: Five animals were chosen at random from each of the agreed treatment groups. Colon tissue was collected after euthanasia, weighted, flushed using cold sterile saline, and divided into three sections. One distal sample (approx. 1 cm×1 cm) was employed for intestinal myeloperoxidase (MPO) activity as described below by Berand Ltd. This sample was weighed and stored at −80° C. until use. A second proximal colon sample (approx. 1 cm×5 cm) was prepared for histological analysis by collection using the Swiss roll technique, placed into a cassette for paraffin embedding and preservation in 10% formalin solution for 24 hours. They were then transferred into 70% ethanol solution until paraffin embedded. These samples were shipped in 70% ethanol solution to Transpharmation Ltd at trinity College Dublin, Ireland for further processing. Haematoxylin & eosin staining was performed on the tissue before imaging. Five images were taken from each animal at 1.25× magnification. Using ImageJ the thickness of the muscle layer was measured at 5 locations throughout the section. A third medial section of colon (approx. 1 cm×2.5 cm) was frozen in liquid nitrogen for the analysis of cytokine expression and was shipped at minus 80° C. to Transpharmation Ltd at Trinity College Dublin, Ireland.
Staining was performed using the Haematoxylin and Eosin kit from Vector Laboratories (Cat. No. H-3502). Sections were deparaffinized and rehydrated by washing in xylene (3×5 min), 100% ethanol (1 min), 96% ethanol (1 min) and distilled water (2 min). Each section was fully covered in haematoxylin stain and left for 5 min before being washed twice in distilled water for 15 s. […]
Sections were imaged using an Olympus BX51 microscope at a magnification of 1.25×. Images were then analysed using ImageJ software. Thickness of muscle were measured from luminal surface to muscularis mucosa and from luminal surface to external muscle layer. […]
For the histological analysis of colonic tissue, statistical analysis was performed using GraphPad Prism 9. Normality was assessed using the Shapiro-Wilk test. […]

[2] = system: rodent in utero VPA model of autism; assay: Behavioural changes in rodent in utero VPA model of autism (overall conclusion); assay type: in vivo, rat; conditions: sub-chronic treatment with CBD alone, p.o.
Description: In the first study, a sub-chronic 8-day dosing schedule was employed with the test compound CBD administered alone (10, 30 and 60 mg/kg, p.o. VPA/CBD; dose volume 5 ml/kg). Control animals were administered sterile saline (0.9% w/v, i.p.) in utero and the vehicle control (ethanol: Kolliphor HS-15:0.9% saline (1:1:18, v/v/v) p.o. VEH/VEH). The test compound and vehicle control were administered to the animals once daily for 7 days prior to, and once again on each day of behavioural assessment, 60 minutes prior to test which consisted of a battery of behavioural paradigms: P30 social play and bottle brush test, P31-32 open field exploratory behaviour. […] Subsequent to behavioural analysis the effect of CBD on gastrointestinal permeability was evaluated four hours following oral administration of fluorescein isothiocyanate-labelled dextran measured in plasma on postnatal day 33. […] 5 In the second study, the sub-optimal dose of CBD (30 mg/kg, p.o.) was evaluated in combination with administration of THC at increasing concentration (0.75, 1.5 and 3 mg/kg, p.o. VPA/CBD+THC). […] Behavioural and gastrointestinal readouts were examined as per study one with terminal samples collected on the final day of the experiment.
Two experimental studies carried out 1). that established the effective dose of CBD and 2). determined the additive effect of CBD in combination with THC at increasing ratios. […]

[3] = system: rat VPA model of autism; assay: Open field behaviour (P31-32): locomotor activity, centre crossing, circling, self-grooming in VPA rat model; assay type: in vivo; design: key to open field (spontaneous LMA on day 1) / open field (habituation LMA on day 2) / centre crossing / centre time / Circling / Grooming: +: improvement; Ø: no change
Description: In the first study, a sub-chronic 8-day dosing schedule was employed with the test compound CBD administered alone (10, 30 and 60 mg/kg, p.o. VPA/CBD; dose volume 5 ml/kg). Control animals were administered sterile saline (0.9% w/v, i.p.) in utero and the vehicle control (ethanol: Kolliphor HS-15:0.9% saline (1:1:18, v/v/v) p.o. VEH/VEH). The test compound and vehicle control were administered to the animals once daily for 7 days prior to, and once again on each day of behavioural assessment, 60 minutes prior to test which consisted of a battery of behavioural paradigms: P30 social play and bottle brush test, P31-32 open field exploratory behaviour. A reference positive control, the atypical antipsychotic risperidone (0.125 mg/kg, i.p., once per day for 8 days prior to and for duration of behavioural testing), was included in study one for comparison. Subsequent to behavioural analysis the effect of CBD on gastrointestinal permeability was evaluated four hours following oral administration of fluorescein isothiocyanate-labelled dextran measured in plasma on postnatal day 33. On postnatal day 34, 60 minutes post a final treatment with the test agents, animals were humanely euthanised and samples collected to evaluate inflammatory biomarkers, gastrointestinal function and histology. 5 In the second study, the sub-optimal dose of CBD (30 mg/kg, p.o.) was evaluated in combination with administration of THC at increasing concentration (0.75, 1.5 and 3 mg/kg, p.o. VPA/CBD+THC). Comparison was made to CBD administered alone at the sub-optimal and effective doses (30 and 60 mg/kg, p.o.) and to vehicle controls as per study one. Behavioural and gastrointestinal readouts were examined as per study one with terminal samples collected on the final day of the experiment.
Following eight days treatment with the test compound animals were scored for locomotor activity and exploratory behaviour in two 10-minute trials within an open field arena over two days, a protocol widely used at Berand and allows to distinguish between day 1 spontaneous locomotor activity and day 2 locomotor activity following habituation (pre-exposure to the arena on day 1). Each day the animals were placed into a […] black Perspex box with 30 cm side walls, under low light and monitored via remote video capture for spontaneous activity. Linked to Ethovision XT image analysis software these videos were analysed for total distance moved and number and duration of centre zone crossings as an indication of hyperactivity and anxiety-like behaviour. Manual scoring of the videos was conducted (blinded to treatment group) to determine frequency of circling behaviour (number of 360 degree turns) and duration of self-grooming (n=8).

[4] = cohort two, CBD 30 mg/kg, THC 0 mg/kg p.o.
[5] = cohort two, CBD 60 mg/kg, THC 0 mg/kg p.o.
[6] = study one, CBD 60 mg/kg, vs VPA/VEH
[7] = cohort one, risperidone 0.125 mg/kg i.p.
[8] = study one, risperidone 0.125 mg/kg i.p.

Question: Which results are given for `C=C(C)[C@@H]1CCC(C)=C[C@H]1c1c(O)cc(CCCCC)cc1O` [CBD, cannabidiol]?
Answer: Average Muscle Thickness ([1]; CBD 30 mg/kg): 220.4 μm; Average Muscle Thickness ([1]; CBD 60 mg/kg): 207.2 μm; thinning of colonic muscle ([1]; VPA rats, treatment with CBD (30, 60 mg/kg)): attenuated; minimum effective dose [2]: 60 mg/kg; Circling ([3]; cohort one, CBD 10 mg/kg p.o.): Ø; Grooming ([3]; cohort one, CBD 10 mg/kg p.o.): Ø; centre crossing ([3]; cohort one, CBD 10 mg/kg p.o.): Ø; centre time ([3]; cohort one, CBD 10 mg/kg p.o.): Ø; open field (habituation LMA on day 2) ([3]; cohort one, CBD 10 mg/kg p.o.): Ø; open field (spontaneous LMA on day 1) ([3]; cohort one, CBD 10 mg/kg p.o.): Ø; Circling ([3]; cohort one, CBD 30 mg/kg p.o.): Ø; Grooming ([3]; cohort one, CBD 30 mg/kg p.o.): Ø; centre crossing ([3]; cohort one, CBD 30 mg/kg p.o.): Ø; centre time ([3]; cohort one, CBD 30 mg/kg p.o.): Ø; open field (habituation LMA on day 2) ([3]; cohort one, CBD 30 mg/kg p.o.): Ø; open field (spontaneous LMA on day 1) ([3]; cohort one, CBD 30 mg/kg p.o.): Ø; Circling ([3]; cohort one, CBD 60 mg/kg p.o.): +; Grooming ([3]; cohort one, CBD 60 mg/kg p.o.): +; centre crossing ([3]; cohort one, CBD 60 mg/kg p.o.): Ø; centre time ([3]; cohort one, CBD 60 mg/kg p.o.): Ø; open field (habituation LMA on day 2) ([3]; cohort one, CBD 60 mg/kg p.o.): +; open field (spontaneous LMA on day 1) ([3]; cohort one, CBD 60 mg/kg p.o.): +; Circling [3, 4]: +; Grooming [3, 4]: Ø; centre crossing [3, 4]: Ø; centre time [3, 4]: Ø; open field (habituation LMA on day 2) [3, 4]: Ø; open field (spontaneous LMA on day 1) [3, 4]: Ø; Circling [3, 5]: +; Grooming [3, 5]: +; centre crossing [3, 5]: +; centre time [3, 5]: +; open field (habituation LMA on day 2) [3, 5]: +; open field (spontaneous LMA on day 1) [3, 5]: +; increase in circling behaviour, day 2 ([3]; study one, CBD 60 mg/kg): significantly attenuated; increase in self grooming, day 2 ([3]; study one, CBD 60 mg/kg): reversed; increase in locomotor activity (distance travelled), day one [3, 6]: significantly prevented; increase in locomotor activity (distance travelled), day two [3, 6]: significantly prevented; increase in circling and grooming behaviour, day one ([3]; study one, CBD (10, 30 and 60 mg/kg)): without effect; increase in circling behaviour, day 2 ([3]; study two, CBD 30 mg/kg): without effect; increase in circling, day one ([3]; study two, CBD 30 mg/kg): significantly prevented; increase in locomotor activity (distance travelled), day one ([3]; study two, CBD 30 mg/kg): without effect; increase in locomotor activity (distance travelled), day two ([3]; study two, CBD 30 mg/kg): without effect; increase in self grooming, day 2 ([3]; study two, CBD 30 mg/kg): without effect; increase in circling behaviour, day 2 ([3]; study two, CBD 60 mg/kg): significantly attenuated; increase in circling, day one ([3]; study two, CBD 60 mg/kg): significantly prevented; increase in locomotor activity (distance travelled), day one ([3]; study two, CBD 60 mg/kg): significantly prevented; increase in locomotor activity (distance travelled), day two ([3]; study two, CBD 60 mg/kg): significantly prevented; increase in self grooming, day 2 ([3]; study two, CBD 60 mg/kg): reversed

Question: `Cc1nc2n(c(=O)c1CCN1CCC(c3noc4cc(F)ccc34)CC1)CCCC2` [Risperidone, risperidone] was tested. Which Circling [3, 7] did it give?
Answer: Ø

Question: What about the Grooming [3, 7] of the same compound?
Answer: Ø

Question: And the centre crossing [3, 7]?
Answer: Ø

Question: What about the centre time [3, 7] of the same compound?
Answer: Ø

Question: What about the “open field (habituation LMA on day 2)” value [3, 7] of the same compound?
Answer: +

Question: And the “open field (spontaneous LMA on day 1)” value [3, 7]?
Answer: +

Question: And the “circling and self-grooming, day one or two” value [3, 8]?
Answer: did not reach significance

Question: What about the “increased locomotor activity, day two” value [3, 8] of the same compound?
Answer: significantly reduced

Question: And the “locomotor hyperactivity, day one” value [3, 8]?
Answer: significantly reduced
